Assays:
[1] = system: HCT-116; experiment: Xenograft model, HCT-116; assay type: in vivo, mouse; details: i.p.
[2] = system: SKOV-3; experiment: Xenograft model, SKOV-3; assay type: in vivo, mouse; details: i.p.
[3] = system: COLO-205; experiment: Xenograft model, COLO-205; assay type: in vivo, mouse; details: i.p., 12 days
Excerpt: In Vivo Anti-Neoplastic (or Anti-Tumour) Effect of HDAC Inhibiting Agents
The efficacy of the selected compounds of the invention can then be determined using in vivo animal (mouse) xenograft studies. The animal xenograft model is one of the most commonly used in vivo cancer models for studying the pharmaceutically effective dosage, administration route, frequency and interval.
Athymic nude mice (Female, 5-6 week old, BALB/c, nu/nu, approximately 18-20 g body weight) are obtained from Vital River. The animals are kept on a 12 h light/dark cycle (0700-1900); food and water are provided ad libitum. All in vivo experiments are carried out in a specific pathogen-free facility (22° C.). The human cancer […] transplant model in athymic nude mice is constructed using xenograft cell lines colon cancer cell line colo205, breast cancer cell line MDA-MB435, and lung cancer cell line A549, all obtained from ATCC. Cultured cells are removed from culture plate wall by digestion, collected and suspended in cell culture medium containing no FBS, at a concentration of 5×10^6/0.2 ml, and brought to animal facility on ice. is 0.2 ml cell suspension is given to mice via rear left auxilliary subcutaneous scapular injection, using Size 6 needle. Animals are measured every 2-3 days on the size of tumor formation. After two weeks, those tumors that have been well grown without leak are removed from animals under sterile condition, split into several small fractions (2-3 mm in diameter), and injected s.c. into the rear left auxilliary subcutaneous scapular of animals. […] While the animas being treated, body weight of the animal and size of the tumor are measured every 3 days, with mortality also recorded. […] Tumors are removed, weighed, and measured. […] Tumor-inhibition rate, mortality, as well as relative tumor proliferationrate T/C (%) are calculated. […]
Significant differences in tumor growth rate were determined by analysis of variance (Table 5).

[4] = Microsomal stability and clearance; assay type: in vitro ADME, human, mouse; details: microsomal stability; Table 4
Experimental: Measure of Microsomal Stability and Clearance with Compounds of this Invention
Verapamil (positive control) and compound solution, both at 10 mM, are diluted 200 fold. There are six reaction time points in the experiment (0 min, 5 min, 15 min, 30 min, 45 min, and 60 min), and triplicate samples are used for each data point. There are controls for time zero and negative drug effect (negative control containing no incubation buffer or enzyme). For each compound or Verapamil sample, there are also samples treated with compound or Verapamil at concentrations of no positive effect (at 5 μM and 2.5 μM, respectively). Diluted positive control (Verapamil) and compound solution are mixed with pre-heated (37° C.) incubation buffer (100 mM potassium phosphate buffer, NADPH regeneration system solution B, NAPDH regeneration system solution A, HLM/MLM in Milli-Q ultrapure water), and incubated at 37° C. for 10 min. 100 μL of stop solution mixture is (containing 80% acetonitrile, and 20% DMSO, both of HPLC grade) is dispensed into wells of separate sampling plates into each well. At each reaction time point (0 min, 5 min, 15 min, 30 min, 45 min, and 60 min) 50 μL of reaction solution is taken from wells in the incubation plate and transferred to its corresponding well in the sampling plate, and mixed by pipetting up and down with stop solution already added there. The sampling plates are then covered, placed on ice, and centrifuged at 2,000 rpm at 4° C. for 15 min. 100 μL supernatant is then taken from each well to LC/MS analysis (or stored at 4° C. in refrigerator until analysis).
Data analysis: % remaining of compound is calculated by area of each time point with respect to time 0% remaining against time (min) curve is plotted using the first-phase exponential decay equation y=y0e(−kT) on the Prism 4.0. Results are shown in the format of TOP, K, t1/2 (min), R2 value and % remaining against time curve.

[5] = system: PC-3; experiment: Xenograft model, PC-3; assay type: in vivo, mouse; details: i.p., 15 days
[6] = system: HL-60; experiment: Cell-based proliferation assay (SRB), HL-60; details: Homo sapiens

CCCCCNc1cc(/C=C/C(=O)NO)ccc1SCCN(CC)CC [Example 2, 3-(4-(2-(diethylamino)ethylthio)-3-(pentylamino)phenyl)-N-hydroxy-acrylamide]
T/C(%) HCT-116 ([1]; 300 mg/kg, 14 days): 31% (300,14)
T/C(%) SKOV-3 ([2]; 200 mg/kg, 21 days): 45% (200,21)
T/C(%) COLO-205 ([3]; 200 mg/kg): 42% (200,12)
half-life [4]: 1.8 h
T/C(%) PC-3 ([5]; 200 mg/kg): 43% (200,15)
GI50 ([6]; HL-60, Table 3): 3.51 µM
GI50 ([6]; HL-60, Table 4): 3.51 µM

O=C(CCCCCCC(=O)Nc1ccccc1)NO [SAHA, suberoylanilide hydroxamic acid, reference compound]
T/C(%) HCT-116 ([1]; 80 mg/kg, 15 days): >60% (80,15)
T/C(%) SKOV-3 ([2]; 80 mg/kg, 20 days): >60% (80,20)
T/C(%) COLO-205 ([3]; 80 mg/kg): >60% (80,12)
half-life [4]: 1.6 h
T/C(%) PC-3 ([5]; 80 mg/kg): 37% (80,15)
GI50 ([6]; HL-60, Table 3): 2 µM

CCCCc1nc2cc(/C=C/C(=O)NO)ccc2n1CCN(CC)CC [SB939, reference compound]
T/C(%) HCT-116 ([1]; 30 mg/kg, 14 days): 30% (30,14)
T/C(%) SKOV-3 ([2]; 30 mg/kg, 20 days): >60% (30,20)
T/C(%) COLO-205 ([3]; 30 mg/kg): 55% (30,12)
half-life [4]: 1.9 h
T/C(%) PC-3 ([5]; 30 mg/kg): >60% (30,15)
GI50 ([6]; HL-60, Table 3): 0.645 µM
GI50 ([6]; HL-60, Table 4): 0.645 µM

From patent US8921424B2, “Histone deacetylase inhibitors, process for preparation and uses thereof” (Zhejiang Hisun Pharmaceutical Co. Ltd., priority 2007, dated 2014)
